Here are results for 38 compounds from US8367687B2, “Pyrazole derivatives” (Novartis AG, priority 2007, dated 2013).

Where two headings read alike, the source gives them in different places.

Common to all, as to assay type: biochemical
For one test, the target named is CDK4 (Homo sapiens, UniProt P11802). The experiment in a line: CDK4 HTRF. In general terms: TR-FRET usually uses a lanthanide donor and a delayed reading to cut background.
Another test has as its target CDK2 cyA (Homo sapiens, UniProt P24941). The experiment in a line: CDK2 cyA IMAP.
A further test deals with hCDK1/B (Homo sapiens, UniProt P06493). The experiment in a line: hCDK1/B.
Where [1] appears, read: Table 1, read-out: CDK2 cyA IMAP.
The mark [2] stands for this setting: Table 2, read-out: CDK4 HTRF/ IC50.
Where [3] appears, read: Table 2, read-out: CDK2cyA IMAP/ IC50.

Sequence of hCDK1/B (P06493 whole entry): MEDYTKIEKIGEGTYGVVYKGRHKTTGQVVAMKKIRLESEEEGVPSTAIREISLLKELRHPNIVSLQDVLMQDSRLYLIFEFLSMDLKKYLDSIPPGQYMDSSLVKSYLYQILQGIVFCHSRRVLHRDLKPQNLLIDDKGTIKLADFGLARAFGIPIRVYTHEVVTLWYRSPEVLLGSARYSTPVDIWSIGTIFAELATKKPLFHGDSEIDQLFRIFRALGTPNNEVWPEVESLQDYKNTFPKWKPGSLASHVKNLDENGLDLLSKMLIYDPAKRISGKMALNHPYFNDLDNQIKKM
Sequence of hCDK1/B (P14635 whole entry partner): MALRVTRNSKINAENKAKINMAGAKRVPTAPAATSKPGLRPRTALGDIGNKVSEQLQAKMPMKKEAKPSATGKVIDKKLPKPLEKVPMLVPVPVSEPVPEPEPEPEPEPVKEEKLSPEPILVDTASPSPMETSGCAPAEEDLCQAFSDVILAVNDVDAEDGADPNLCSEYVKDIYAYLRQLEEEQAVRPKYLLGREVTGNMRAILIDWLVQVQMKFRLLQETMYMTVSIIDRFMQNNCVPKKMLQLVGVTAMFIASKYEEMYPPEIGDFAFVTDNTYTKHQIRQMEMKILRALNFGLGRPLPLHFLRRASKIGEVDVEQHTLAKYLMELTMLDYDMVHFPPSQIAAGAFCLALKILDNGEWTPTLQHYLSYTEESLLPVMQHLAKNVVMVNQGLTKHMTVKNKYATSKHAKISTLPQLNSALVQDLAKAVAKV
Sequence of CDK4 (P11802 whole entry): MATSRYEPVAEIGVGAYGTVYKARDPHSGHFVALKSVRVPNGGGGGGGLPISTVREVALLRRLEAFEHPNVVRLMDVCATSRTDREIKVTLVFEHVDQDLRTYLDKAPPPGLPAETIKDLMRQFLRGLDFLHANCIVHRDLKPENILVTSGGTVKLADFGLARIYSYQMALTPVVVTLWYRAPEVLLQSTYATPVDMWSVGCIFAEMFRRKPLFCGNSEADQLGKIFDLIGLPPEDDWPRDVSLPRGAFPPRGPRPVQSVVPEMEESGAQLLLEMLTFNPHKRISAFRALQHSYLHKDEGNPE
Sequence of CDK4 (P24385 whole entry partner): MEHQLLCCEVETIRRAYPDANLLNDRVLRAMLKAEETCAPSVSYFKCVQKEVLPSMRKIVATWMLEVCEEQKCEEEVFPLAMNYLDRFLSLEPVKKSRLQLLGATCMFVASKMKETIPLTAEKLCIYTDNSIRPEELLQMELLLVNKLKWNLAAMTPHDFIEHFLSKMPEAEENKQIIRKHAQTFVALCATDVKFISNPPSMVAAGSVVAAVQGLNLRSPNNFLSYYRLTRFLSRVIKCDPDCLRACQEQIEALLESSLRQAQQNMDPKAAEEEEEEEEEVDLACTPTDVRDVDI

As to `CC(C)c1[nH]ncc1-c1ccnc(NC2CCCCC2)c1` [Example 7], the IC50 on CDK4 (Table 1, read-out: CDK4 HTRF) is below 0.5 µM; on CDK2 cyA (setting [1]) it was below 0.5 µM; against hCDK1/B (Table 1) it was below 1 µM.

Take `CC(C)c1[nH]ncc1-c1ccnc(NC2CCN(C)CC2)c1` [Example 78]: the IC50 at CDK4 (Table 1, read-out: CDK4 HTRF) was below 0.5 µM; at CDK2 cyA (setting [1]), below 15 µM; against hCDK1/B (Table 1) it was below 10 µM.

As for `Cc1n[nH]cc1-c1ccnc(NCCc2cccnc2)n1` [Example 132], the values for the IC50 at CDK4 (setting [2]), at CDK2 cyA (setting [3]) and on hCDK1/B (Table 2) were below 1 µM, below 10 µM and below 10 µM, respectively.

In the case of `CC(C)c1[nH]ncc1-c1ccnc(NC(C)c2ccccc2)c1` (stereo not drawn) [Example 27], the IC50 is below 1 µM at CDK4 (Table 1, read-out: CDK4 HTRF); below 5 µM on CDK2 cyA (setting [1]); below 5 µM against hCDK1/B (Table 1).

For `CC(C)c1n[nH]cc1-c1ccnc(NCc2ccccc2Cl)n1` [Example 153], the IC50 is below 5 µM at CDK4 (setting [2]), below 1 µM at CDK2 cyA (setting [3]) and below 1 µM at hCDK1/B (Table 2).

For the compound `CC(CCc1ccccc1)Nc1nccc(-c2c[nH]nc2C(C)C)n1` (stereo not drawn) [Example 155], the IC50 was below 1 µM at CDK4 (setting [2]), below 5 µM on CDK2 cyA (setting [3]) and below 5 µM on hCDK1/B (Table 2).

Take `CC(C)c1n[nH]cc1-c1ccnc(N[C@@H](C)c2ccccc2)n1` [Example 182]: the IC50 at CDK4 (setting [2]) was below 10 µM; on CDK2 cyA (setting [3]), below 10 µM; against hCDK1/B (Table 2) it was below 5 µM.

As for `COc1ccc(CNc2cc(-c3cn[nH]c3C(C)C)ccn2)cc1` [Example 34], the IC50 is below 5 µM on CDK4 (Table 1, read-out: CDK4 HTRF); below 5 µM on CDK2 cyA (setting [1]); below 5 µM against hCDK1/B (Table 1).

On to `c1cc(-c2cn[nH]c2C2CCCC2)cc(NC2CCCCC2)n1` [Example 54], for which the IC50 on CDK4 (Table 1, read-out: CDK4 HTRF) is below 0.5 µM; on CDK2 cyA (setting [1]), below 1 µM; against hCDK1/B (Table 1) it was below 5 µM.

On to `CC(C)c1n[nH]cc1-c1ccnc(NCc2ccc(N(C)C)cc2)n1` [Example 147], for which the IC50 at CDK4 (setting [2]), at CDK2 cyA (setting [3]) and against hCDK1/B (Table 2) was below 5 µM in each case.

For the compound `CC(C)c1n[nH]cc1-c1ccnc(NCCCNC2CCCCC2)n1` [Example 148], the IC50 is below 5 µM on CDK4 (setting [2]), below 10 µM on CDK2 cyA (setting [3]) and below 15 µM at hCDK1/B (Table 2).

Regarding `CC(C)c1[nH]ncc1-c1ccnc(NCc2cc(F)cc(F)c2)c1` [Example 38], the IC50 is below 1 µM at CDK4 (Table 1, read-out: CDK4 HTRF); below 5 µM on CDK2 cyA (setting [1]); below 5 µM at hCDK1/B (Table 1).

With `CC(C)c1[nH]ncc1-c1ccnc(NC2CCN(Cc3ccccc3)CC2)c1` [Example 45], the IC50 on CDK4 (Table 1, read-out: CDK4 HTRF) was below 0.5 µM; on CDK2 cyA (setting [1]), at least 15 µM; against hCDK1/B (Table 1), below 15 µM.

On to `CC(C)c1[nH]ncc1-c1ccnc(NC2CC2)c1` [Example 39], for which the IC50 on CDK4 (Table 1, read-out: CDK4 HTRF) was below 0.5 µM; on CDK2 cyA (setting [1]) it was below 1 µM; against hCDK1/B (Table 1), below 5 µM.

As for `CCC(CC)c1[nH]ncc1-c1ccnc(NC2CCN(C)CC2)c1` [Example 73], the IC50 was below 1 µM on CDK4 (Table 1, read-out: CDK4 HTRF); below 10 µM at CDK2 cyA (setting [1]); below 5 µM against hCDK1/B (Table 1).

As for `CC(C)c1[nH]ncc1-c1ccnc(NCc2ccccc2)c1` [Example 4], the IC50 was below 1 µM at CDK4 (Table 1, read-out: CDK4 HTRF); below 5 µM on CDK2 cyA (setting [1]); below 5 µM on hCDK1/B (Table 1).

On to `Cc1ccccc1CNc1cc(-c2cn[nH]c2C2CCCC2)ccn1` [Example 60], for which the IC50 on CDK4 (Table 1, read-out: CDK4 HTRF) is below 0.5 µM; at CDK2 cyA (setting [1]), below 5 µM; against hCDK1/B (Table 1), below 5 µM.

On to `CCC(CC)c1[nH]ncc1-c1ccnc(NC2CCc3ccccc32)c1` (stereo not drawn) [Example 74], for which the IC50 at CDK4 (Table 1, read-out: CDK4 HTRF) was below 5 µM; at CDK2 cyA (setting [1]), below 5 µM; on hCDK1/B (Table 1) it was below 5 µM.

`Cc1n[nH]cc1-c1ccnc(NCC(C)C)n1` [Example 92]: the IC50 at CDK4 (setting [2]), at CDK2 cyA (setting [3]) and against hCDK1/B (Table 2) was below 5 µM throughout.

For the compound `Cc1n[nH]cc1-c1ccnc(NC2CCN(c3ccccc3)CC2)n1` [Example 136], the IC50 on CDK4 (setting [2]) was below 0.5 µM; on CDK2 cyA (setting [3]), below 5 µM; against hCDK1/B (Table 2), below 5 µM.

`CC(C)COCCCNc1nccc(-c2c[nH]nc2C(C)C)n1` [Example 150]: the IC50 was below 0.5 µM on CDK4 (setting [2]), below 5 µM at CDK2 cyA (setting [3]) and below 1 µM against hCDK1/B (Table 2).

Consider `c1cc(-c2cn[nH]c2C2CCCC2)cc(NC2CCCCCC2)n1` [Example 55], for which the IC50 on CDK4 (Table 1, read-out: CDK4 HTRF) is below 0.5 µM; on CDK2 cyA (setting [1]) it was below 1 µM; at hCDK1/B (Table 1), below 5 µM.

Take `c1cc(-c2cn[nH]c2C2CCCC2)cc(NC2CC2)n1` [Example 53]: the IC50 at CDK4 (Table 1, read-out: CDK4 HTRF) is below 0.5 µM; at CDK2 cyA (setting [1]), below 1 µM; against hCDK1/B (Table 1) it was below 5 µM.

As for `CC(C)c1n[nH]cc1-c1ccnc(NCCCN(C)c2ccccc2)n1` [Example 142], the IC50 at CDK4 (setting [2]) is below 5 µM; at CDK2 cyA (setting [3]) it was below 5 µM; against hCDK1/B (Table 2), below 1 µM.

On to `CC(C)c1n[nH]cc1-c1ccnc(N[C@H](C)c2ccccn2)n1` [Example 187], for which the IC50 on CDK4 (setting [2]) is below 0.1 µM; on CDK2 cyA (setting [3]), below 5 µM; against hCDK1/B (Table 2), below 5 µM.

For the compound `c1ccc(CCNc2cc(-c3cn[nH]c3C3CCCC3)ccn2)cc1` [Example 58], the IC50 on CDK4 (Table 1, read-out: CDK4 HTRF) is below 0.5 µM; at CDK2 cyA (setting [1]), below 5 µM; against hCDK1/B (Table 1), below 5 µM.

For the compound `CC(C)c1[nH]ncc1-c1ccnc(NC2CCc3ccccc32)c1` (stereo not drawn) [Example 43], the IC50 was below 0.5 µM at CDK4 (Table 1, read-out: CDK4 HTRF); below 5 µM at CDK2 cyA (setting [1]); below 5 µM against hCDK1/B (Table 1).

As for `CC(C)c1[nH]ncc1-c1ccnc(NCC2CC2)c1` [Example 8], the IC50 at CDK4 (Table 1, read-out: CDK4 HTRF) is below 0.5 µM; at CDK2 cyA (setting [1]) it was below 5 µM; against hCDK1/B (Table 1) it was below 5 µM.

For `c1cncc(CCNc2cc(-c3cn[nH]c3C3CCCC3)ccn2)c1` [Example 59], the IC50 was below 0.5 µM on CDK4 (Table 1, read-out: CDK4 HTRF); below 5 µM at CDK2 cyA (setting [1]); below 5 µM against hCDK1/B (Table 1).

For `CC(C)c1n[nH]cc1-c1ccnc(NC2CCN(c3ccccc3)CC2)n1` [Example 172], the IC50 at CDK4 (setting [2]) is below 0.05 µM; on CDK2 cyA (setting [3]), below 0.5 µM; against hCDK1/B (Table 2) it was below 0.5 µM.

Take `FC(F)(F)c1ccccc1CNc1cc(-c2cn[nH]c2C2CCCC2)ccn1` [Example 63]: the IC50 at CDK4 (Table 1, read-out: CDK4 HTRF) was below 10 µM; on CDK2 cyA (setting [1]) it was below 5 µM; at hCDK1/B (Table 1) it was below 5 µM.

With `c1ccc2c(c1)CC(Nc1cc(-c3cn[nH]c3C3CCCCCC3)ccn1)C2` [Example 67], the IC50 is below 5 µM on CDK4 (Table 1, read-out: CDK4 HTRF); below 1 µM at CDK2 cyA (setting [1]); below 5 µM at hCDK1/B (Table 1).

Consider `Cc1cnc(NC2CCN(C)CC2)nc1-c1c[nH]nc1C(C)C` [Example 184], for which the IC50 was below 0.5 µM on CDK4 (setting [2]), below 5 µM at CDK2 cyA (setting [3]) and below 5 µM at hCDK1/B (Table 2).

As for `COCCNc1cc(-c2cn[nH]c2C(C)C)ccn1` [Example 5], the IC50 is below 5 µM on CDK4 (Table 1, read-out: CDK4 HTRF); below 10 µM at CDK2 cyA (setting [1]); below 10 µM on hCDK1/B (Table 1).

With `CC(C)c1n[nH]cc1-c1ccnc(NCc2c(F)cccc2F)n1` [Example 157], the figures for the IC50 on CDK4 (setting [2]), on CDK2 cyA (setting [3]) and on hCDK1/B (Table 2) were below 1 µM, below 5 µM and below 1 µM, respectively.

Take `Cc1n[nH]cc1-c1ccnc(NC2Cc3ccccc3C2)n1` [Example 125]: the results for the IC50 on CDK4 (setting [2]), on CDK2 cyA (setting [3]) and against hCDK1/B (Table 2) were below 0.5 µM, below 5 µM and below 5 µM, respectively.

Consider `CCC(CC)c1[nH]ncc1-c1ccnc(NCc2ccccc2C)c1` [Example 71], for which the IC50 at CDK4 (Table 1, read-out: CDK4 HTRF) is below 0.5 µM; at CDK2 cyA (setting [1]), below 5 µM; at hCDK1/B (Table 1), below 5 µM.

Turning to `CCC(CC)c1[nH]ncc1-c1ccnc(NC2CCN(C(=O)OC(C)(C)C)CC2)c1` [Example 72], the IC50 at CDK4 (Table 1, read-out: CDK4 HTRF) is below 1 µM; on CDK2 cyA (setting [1]), below 5 µM; on hCDK1/B (Table 1), below 1 µM.
